These results are taken from patent publication US20100009970A1, “COMPOSITIONS AND METHODS FOR TREATMENT OF VIRAL DISEASES” (Combinatorx (Singapore) Pte. Ltd., priority 2008, published 2010).

“And” between values parts separate entries of the source, which are not always exact repeats. Equal values may be shown once. “Also recorded” adds a separate entry of the source. Read-outs that look alike come from different tables or passages of the source.

For data set [1] the following is noted: general description; cited from earlier work.
The test system of data set [2] is Huh7 cells expressing a subgenomic RNA replicon of Con1 (genotype 1b) sequence origin.
The target in another data set is SRI (Homo sapiens, UniProt P31645). The experiment in a line: BBB/Neurotransmitter Binding: SRI.
Chain of SRI (P31645 whole entry): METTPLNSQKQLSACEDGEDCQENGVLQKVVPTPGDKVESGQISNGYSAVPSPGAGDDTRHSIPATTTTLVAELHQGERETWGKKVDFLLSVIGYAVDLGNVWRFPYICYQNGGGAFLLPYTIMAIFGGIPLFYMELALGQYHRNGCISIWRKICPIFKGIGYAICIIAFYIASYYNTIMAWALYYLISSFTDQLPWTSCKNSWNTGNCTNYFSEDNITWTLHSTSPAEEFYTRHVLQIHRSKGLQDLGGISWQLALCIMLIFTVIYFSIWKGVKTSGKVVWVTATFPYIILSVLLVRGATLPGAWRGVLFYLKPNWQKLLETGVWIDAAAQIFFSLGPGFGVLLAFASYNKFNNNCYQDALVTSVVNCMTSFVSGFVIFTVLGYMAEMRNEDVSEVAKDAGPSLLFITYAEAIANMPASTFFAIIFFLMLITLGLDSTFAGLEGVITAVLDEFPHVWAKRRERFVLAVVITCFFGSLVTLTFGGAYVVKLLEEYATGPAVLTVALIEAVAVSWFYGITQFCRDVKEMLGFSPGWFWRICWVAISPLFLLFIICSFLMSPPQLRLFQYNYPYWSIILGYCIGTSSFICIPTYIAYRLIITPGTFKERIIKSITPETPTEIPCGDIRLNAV
The test system of data set [3] is Huh7 cells expressing a subgenomic RNA replicon of Con1 (genotype 1b) sequence origin. Kind of data set: microbe, parasite or virus in culture. To be noted: Hepatitis C virus.
A further data set is described as follows: in vitro. The settings on record: human.
In a further data set the target is NRI (Homo sapiens, UniProt P23975). Type of data set: binding.
Chain of NRI (P23975 whole entry): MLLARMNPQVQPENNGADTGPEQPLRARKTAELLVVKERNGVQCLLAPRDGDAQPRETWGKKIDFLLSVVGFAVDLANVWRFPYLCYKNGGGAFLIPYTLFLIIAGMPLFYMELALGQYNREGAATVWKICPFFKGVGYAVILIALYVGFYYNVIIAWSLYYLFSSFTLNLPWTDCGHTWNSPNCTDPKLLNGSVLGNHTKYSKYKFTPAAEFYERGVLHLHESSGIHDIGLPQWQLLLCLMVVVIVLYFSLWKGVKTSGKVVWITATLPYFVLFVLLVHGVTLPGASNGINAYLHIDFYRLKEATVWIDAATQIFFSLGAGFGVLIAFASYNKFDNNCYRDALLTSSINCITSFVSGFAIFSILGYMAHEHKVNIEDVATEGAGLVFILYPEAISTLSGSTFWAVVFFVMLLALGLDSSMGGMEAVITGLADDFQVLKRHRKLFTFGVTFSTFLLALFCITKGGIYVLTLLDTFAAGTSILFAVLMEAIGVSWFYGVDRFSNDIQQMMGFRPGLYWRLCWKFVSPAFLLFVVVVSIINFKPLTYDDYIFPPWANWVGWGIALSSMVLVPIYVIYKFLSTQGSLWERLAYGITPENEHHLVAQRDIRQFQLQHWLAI
A further data set concerns influenza A/PR/8/34. The arrangement: species or system C57/BL6 mice. The settings on record: mouse, in vivo.
For data set [4] the following is noted: in vivo.
The next data set concerns the target T1, HER1-2 (Homo sapiens, UniProt P04626).
T1 construct: the other entry of the earlier key: EGFR (P00533, Epidermal growth factor receptor)
To be noted: selective HER1 inhibitor (vs. HER1-2); cited from earlier work.

[5] abbreviates: Huh-7, read-out: IC50 (uM) [SG].
Where [6] appears, read: Huh-7, read-out: Max Effect@CC30 (inhibition).
[7] abbreviates: Huh-7, read-out: Max effect @CC30 (%).

T1 sequence (P04626 with tags, fused parts or gaps): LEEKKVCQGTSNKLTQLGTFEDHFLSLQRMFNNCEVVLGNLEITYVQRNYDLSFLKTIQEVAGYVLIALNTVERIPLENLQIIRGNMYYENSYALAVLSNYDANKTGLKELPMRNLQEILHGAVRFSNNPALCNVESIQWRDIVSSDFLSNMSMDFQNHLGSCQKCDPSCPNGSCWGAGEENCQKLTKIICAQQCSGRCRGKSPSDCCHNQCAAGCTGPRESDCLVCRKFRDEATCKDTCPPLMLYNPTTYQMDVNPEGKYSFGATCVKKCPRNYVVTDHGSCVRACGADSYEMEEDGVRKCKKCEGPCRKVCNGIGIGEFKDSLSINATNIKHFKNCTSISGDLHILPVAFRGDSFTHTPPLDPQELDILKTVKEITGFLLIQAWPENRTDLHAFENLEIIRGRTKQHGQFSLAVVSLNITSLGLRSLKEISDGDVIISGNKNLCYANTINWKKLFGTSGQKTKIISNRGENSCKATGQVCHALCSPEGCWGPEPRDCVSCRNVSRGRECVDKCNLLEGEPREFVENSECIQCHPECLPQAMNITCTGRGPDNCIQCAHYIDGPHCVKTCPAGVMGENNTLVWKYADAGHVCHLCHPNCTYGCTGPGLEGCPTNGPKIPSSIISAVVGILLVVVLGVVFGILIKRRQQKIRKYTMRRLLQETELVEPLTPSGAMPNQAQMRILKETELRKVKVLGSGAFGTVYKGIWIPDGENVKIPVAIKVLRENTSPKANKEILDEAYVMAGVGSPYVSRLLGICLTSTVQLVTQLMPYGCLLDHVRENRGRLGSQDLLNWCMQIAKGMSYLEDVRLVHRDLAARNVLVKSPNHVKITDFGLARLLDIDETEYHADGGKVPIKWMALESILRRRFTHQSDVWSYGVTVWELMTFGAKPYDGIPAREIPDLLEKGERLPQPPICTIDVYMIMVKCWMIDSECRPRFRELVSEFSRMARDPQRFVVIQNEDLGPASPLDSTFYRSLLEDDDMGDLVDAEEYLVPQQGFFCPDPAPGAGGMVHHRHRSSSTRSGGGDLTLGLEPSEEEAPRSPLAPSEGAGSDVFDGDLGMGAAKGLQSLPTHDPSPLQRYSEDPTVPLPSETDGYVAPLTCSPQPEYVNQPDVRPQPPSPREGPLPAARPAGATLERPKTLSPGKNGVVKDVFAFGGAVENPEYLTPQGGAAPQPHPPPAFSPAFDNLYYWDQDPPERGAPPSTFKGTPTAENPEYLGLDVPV

By IC50 is commonly meant the point on the concentration scale where inhibition reaches its midpoint. Regarding `CC(=O)OC[C@H]1O[C@@H]([S-])[C@H](OC(C)=O)[C@@H](OC(C)=O)[C@@H]1OC(C)=O.CCP(CC)CC.[Au+]` [Auranofin, reference compound], the “solubility in water (in words)” value in data set [1] was “insoluble in water”. In data set [2], this compound registered a concentration for half-maximal inhibition (IC50) of 1.07 µM.

In general, IC90 refers to the point of the concentration-response curve where the effect stands at 90%. A lower IC90 goes with greater potency. On to `CN[C@H]1CC[C@@H](c2ccc(Cl)c(Cl)c2)c2ccc(C[S+](C)[O-])cc21` (stereo partly drawn) [(1S,4S)-4-(3,4-dichlorophenyl)-N-methyl-7-(methylsulfinylmethyl)-1,2,3,4-tetrahydronaphthalen-1-amine], for which the “BBB/Neurotransmitter Binding (nM) SRI” value at SRI is 340 nM. Moreover, the CC50 in the data set with Huh7 parental cells (human) came out at 15.3 µM; in the data set “in vitro” (CC50 (uM) [SG]) it was 14.8 ± 0.97 µM. Moreover, the IC90 is 5.13 ± 0.16 µM in data set [3] (Huh-7); 5.17 µM and 5.15 µM in data set [2]. Besides, the half-inhibitory concentration (IC50) in data set [3] (setting [5]) stood at 1.34 ± 0.26 µM; in [3] (Huh-7, read-out: SA IC50 (uM)), 1.46 ± 0.23 µM; in data set [2] (read-out: IC50 (uM) [SG]) it was 1.55 µM. The Emax came to 96.5 ± 2.6% in data set [3] (setting [6]) and 97.9 ± 1.1% in data set [3] (setting [7]). In addition, the “BBB/Neurotransmitter Binding (nM) NRI” value on NRI was found to be 450 nM.

Regarding `CN[C@H]1CC[C@@H](c2ccc(Cl)c(Cl)c2)c2ccccc21` [Sertraline, sertraline, reference compound], the CC50 was found to be 7.7 µM in the data set on Huh7 parental cells (human) and 7.98 µM in the data set “in vitro” (CC50 (uM)). The IC90 is 11.3 µM in data set [3] (Huh-7) and 9.65 µM in data set [2]. The Emax in [3] (Huh-7, read-out: Max Effect @CC30 (inhibition)) was found to be 68.5%; in [3] (setting [7]) it was 62.6 ± 21.5%. In the data set with influenza A/PR/8/34, the “effect on survival rate (in words)” value is given as “dose dependant increase in survival rate; also recorded: improves survival rate”. In data set [2], the “Max Effect@CC30 (inhibition)” value is reported as 75.12%.

For the compound `CSc1ccc(Oc2ccc(S(N)(=O)=O)cc2CN(C)C)cc1C` [UK-416244, 3-((dimethylamino)methyl)-4-(3-methyl-4-(methylthio)phenoxy)benzenesulfonamide, reference compound], at SRI (Table 19), the “BBB/Neurotransmitter Binding (nM) SRI” value is recorded as less than 5 nM. For the same compound, the “Pharmcokinetics: Brain levels compared with sertraline” value in [4] is on record as “lower than sertraline”. Further, the “Pharmcokinetics: Liver levels, fold over IC50” value in [4] was “sertraline, 511 fold over”. In addition, the “Pharmcokinetics: overall assessment” value in data set [4] is recorded as “Optimal PK, Liver”. For the same compound, the Emax came to 97% in data set [3] (GETYPE1B, Huh-7, 72 h, read-out: Max Effect @CC30 (inhibition)); 97.2 ± 1.4% in data set [3] (setting [6]); 97.2 ± 1.4% in data set [3] (setting [7]). The IC50 in data set [3] (Huh-7) was determined as 1.41 µM; in [3] (Huh-7, 72 h), 1.63 µM; in data set [3] (setting [5]) it was 1.41 ± 0.2 µM; in [3] (Huh-7, read-out: SA IC50 (uM)), 1.41 ± 0.2 µM; in data set [2] (read-out: IC50 (uM) [SG]), 1.74 µM. For the same compound, the IC90 is 6.17 ± 3.23 µM in data set [3] (Huh-7); 9.86 µM in data set [3] (Huh-7, 72 h); 6.55 µM in [2]. Moreover, the CC50 in the data set “in vitro” (CC50 (uM)) was 327 µM; in the data set “in vitro” (CC50 (uM) [SG]), more than 50 µM.

Turning to `N#C/C(=C\c1ccc(O)c(O)c1)C(=O)Nc1ccccc1` [AG-494, AG 494, reference compound], the values for the IC50 (in [2]; at HER1-2) were 3.45 µM and 45 µM, respectively.

For the compound `CN[C@H]1CC[C@@H](c2ccc(Cl)c(Cl)c2)c2ccc(C(N)=O)cc21` [Sertraline A-ring carboxamide], in data set [4], the “Pharmcokinetics: Brain levels compared with sertraline” value was “IC50, Brain levels lower” and the “Pharmcokinetics: overall assessment” value is given as “Optimal PK. Liver”. For the same compound, in the data set with Huh7 parental cells, the CC50 came to 16.2 ± 0.57 µM. In addition, in data set [2], the IC90 was determined as 5.4 ± 1.81 µM, the “Max Effect@CC30 (inhibition)” value turned out to be 94.5 ± 0.7% and the “Max effect @CC30 (%)” value is on record as 94.5 ± 0.7%. Besides, the IC50 in data set [2] (read-out: IC50 (uM) [SG]) was 1.8 ± 0.18 µM. Moreover, in [2] (read-out: SA IC50), the IC50 was 1.8 µM. In addition, the “BBB/Neurotransmitter Binding (nM) NRI” value on NRI came to 410 nM.
